The values below come from patent publication US20260098030A1, “NEGATIVE ALLOSTERIC MODULATORS OF METABOTROPIC GLUTAMATE RECEPTOR 2” (Vanderbilt University, priority 2022, published 2026).

Structures are written as SMILES.

What is called IC50 is the concentration that gives 50% inhibition. A higher IC50 goes with a need for much substance.

In this test the target is T1, human mGlu2 (Homo sapiens, UniProt Q14416).
T1 construct: expressed in transfected cells; host or cells: HEK-293 cells stably co-expressing GIRK channels
T1 sequence (Q14416 19-872): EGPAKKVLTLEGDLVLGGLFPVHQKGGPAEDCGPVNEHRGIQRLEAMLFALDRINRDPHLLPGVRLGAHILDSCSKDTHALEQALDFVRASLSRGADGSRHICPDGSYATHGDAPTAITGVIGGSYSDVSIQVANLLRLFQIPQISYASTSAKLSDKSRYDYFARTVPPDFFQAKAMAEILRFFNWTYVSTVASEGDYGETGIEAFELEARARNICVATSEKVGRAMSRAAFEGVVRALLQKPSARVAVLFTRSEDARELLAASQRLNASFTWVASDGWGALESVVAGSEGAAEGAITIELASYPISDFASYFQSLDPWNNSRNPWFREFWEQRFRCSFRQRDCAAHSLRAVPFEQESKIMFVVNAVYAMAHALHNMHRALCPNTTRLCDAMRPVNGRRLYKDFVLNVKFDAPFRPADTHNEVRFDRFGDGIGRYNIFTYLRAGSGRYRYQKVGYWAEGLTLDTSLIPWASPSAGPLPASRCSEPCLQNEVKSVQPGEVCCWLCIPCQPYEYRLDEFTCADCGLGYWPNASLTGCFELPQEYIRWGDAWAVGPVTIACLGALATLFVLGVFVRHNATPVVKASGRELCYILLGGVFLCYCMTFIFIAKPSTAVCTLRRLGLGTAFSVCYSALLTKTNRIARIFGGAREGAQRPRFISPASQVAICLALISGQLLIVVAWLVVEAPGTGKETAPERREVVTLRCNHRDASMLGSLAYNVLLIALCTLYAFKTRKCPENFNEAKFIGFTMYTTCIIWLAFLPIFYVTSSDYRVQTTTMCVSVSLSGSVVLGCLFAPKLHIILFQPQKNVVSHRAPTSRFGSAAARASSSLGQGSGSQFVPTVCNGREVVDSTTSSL
As to the kind of experiment: mGlu GIRK cell-based thallium flux assay, human mGlu2. Conditions: HEK-293 cells co-expressing human mGlu2 and GIRK, EC80 glutamate. On the procedure:
Human embryonic kidney (HEK-293) cell lines stably co-expressing human or rat mGlu2 and G protein-coupled inwardly rectifying potassium (GIRK) channels, or human mGlu3 and GIRK, were used for in vitro evaluation of compound activity in thallium flux assay using a fluorescent thallium indicator dye.
The day before the assay, GIRK cells co-expressing human mGlu3, human or rat mGlu2, as described above, were plated in black-walled, clear-bottomed, amine-coated 384-well plates at a density of 15,000 cells/20 μL/well in the assay medium (glutamine-depleted basal DMEM supplemented with 10% dialyzed FBS, 20 mM HEPES, 1 mM sodium pyruvate). Cells were incubated at 37° C. in the presence of 5% CO2. The next day, assay buffer (Hanks balanced salt solution, 20 mM HEPES, 4.16 mM sodium bicarbonate, pH 7.2) was prepared to dilute compounds and Thallos AM fluorescent dye solution. The 2× Thallos dye solution (final concentration 0.34 μM to the cells) was prepared by mixing the dye stock (2.97 mM in DMSO) to 1:1 with 10% pluronic acid before adding to the assay buffer. Cells were washed with assay buffer using a microplate washer to remove the medium, resulting in 20 μL of buffer remaining in each well. Immediately, 20 μL of 2× Thallos dye solution was added to cells, and incubated for one hour at 25° C. During the cell dye loading incubation period, a 10-point concentration serial dilution of compound was created from a 10 mM DMSO compound stock by performing a 1:3 serial dilution in DMSO using the Bravo liquid handler. The 2× compound plate was generated by transferring 0.24 μL of the diluted compound in each well to a daughter plate using an Echo acoustic liquid handler. This is further diluted in 40 μL assay buffer, resulting in a range from 30 μM to 1.5 nM final concentration in the assay. The agonist plate (5×) was prepared to include EC80 glutamate concentration (a concentration to elicit 80% of a maximally effective glutamate concentration) in thallium buffer (125 mM […], 1 mM magnesium sulfate, 1.8 mM calcium sulfate, 5 mM glucose, 10 mM HEPES, pH 7.2, 12.5 mM thallium sulfate).
After dye-loading, cell plates were washed with assay buffer to remove excess extracellular dye using a microplate washer, resulting in 20 μL of buffer remaining in each well. After a ten-minute equilibration period, cell, compound and agonist plates were loaded into a Hamamatsu μCell kinetic imaging plate reader equipped with liquid handler to monitor fluorescence changes at 480 nm excitation and 540 nm emission settings. Briefly, after collection of baseline fluorescence, 20 μL of compound was added and incubated for two minutes and twenty seconds. This is immediately followed by adding 10 μL of glutamate-thallium buffer to the wells containing compound. The fluorescent signal was monitored an additional 2.5 minutes after the glutamate addition. Multiple reference wells containing no compound received either no glutamate (for a baseline reference), EC80 glutamate, or ECmax glutamate (for normalization to maximum response). Fluorescence was measured throughout the experiment at a frequency of 1 measurement per every 2 seconds before the glutamate addition and a frequency of 1 measurement per every 1 second after the glutamate addition. Each compound concentration series occurred one time in each plate, and replicates from two or three plates were used in each experimental run. Thallium solutions were handled and disposed of according to guidelines from the Vanderbilt University Chemical Safety department.
Data were normalized using a static ratio function (F/F0) by dividing every fluorescent measurement by the initial fluorescent value for the corresponding well. The increase in signal resulting from the glutamate/thallium addition of the second add was measured by determining the slope from 3 seconds to 13 seconds after the addition. […]
Compound `N#Cc1cccc(-c2cc3c(cc2-c2cc(F)c(F)cc2F)C(=O)NC3)c1` [Compound 140, 3-(1-oxo-6-(2,4,5-trifluorophenyl)isoindolin-5-yl)benzonitrile] showed an IC50 of 1520 nM.

`N#Cc1cccc(-c2cc3c(cc2-c2ccc(F)cc2C#N)C(=O)NC3)c1` [Compound 141, 2-(6-(3-cyanophenyl)-3-oxoisoindolin-5-yl)-5-fluorobenzonitrile] gave an IC50 of 220 nM.

`Cc1ccc(-c2cc3c(cc2-c2cccc(C#N)c2)CNC3=O)c(F)c1` [Compound 142, 3-(6-(2-fluoro-4-methylphenyl)-1-oxoisoindolin-5-yl)benzonitrile] registered an IC50 of 1310 nM.

For the compound `Cc1cc(F)ccc1-c1cc2c(cc1-c1cccc(C#N)c1)CNC2=O` [Compound 143, 3-(6-(4-fluoro-2-methylphenyl)-1-oxoisoindolin-5-yl)benzonitrile], the IC50 was 1670 nM.

Regarding `N#Cc1cccc(-c2cc3c(cc2-c2ccc(C(F)(F)F)cc2F)C(=O)NC3)c1` [Compound 144, 3-(6-(2-fluoro-4-(trifluoromethyl)phenyl)-1-oxoisoindolin-5-yl)benzonitrile], 3070 nM corresponded to half-maximal inhibition (IC50).

Compound `O=C1NCc2cc(-c3ccnn3C3CCCCO3)c(-c3ccc(F)cc3F)cc21` (centres unmarked) [Compound 147, 6-(2,4-difluorophenyl)-5-(1-(tetrahydro-2H-pyran-2-yl)-1H-pyrazol-5-yl)isoindolin-1-one] had an IC50 of 5910 nM.

Consider `O=C1NCc2cc(-c3cnc(Cl)n3C3CCCCO3)c(-c3ccc(F)cc3F)cc21` (centres unmarked) [Compound 148, 5-(2-chloro-1-(tetrahydro-2H-pyran-2-yl)-1H-imidazol-5-yl)-6-(2,4-difluorophenyl)isoindolin-1-one], for which the IC50 turned out to be 454 nM.

The compound `O=C1NCc2cc(-c3cccc4c3OCC4)c(-c3ccc(F)cc3F)cc21` [Compound 149, 6-(2,4-difluorophenyl)-5-(2,3-dihydrobenzofuran-7-yl)isoindolin-1-one] registered an IC50 of 532 nM.

In the case of `CN1CCN(c2ccccc2-c2cc3c(cc2-c2ccc(F)cc2F)C(=O)NC3)CC1` [Compound 150, 6-(2,4-difluorophenyl)-5-(2-(4-methylpiperazin-1-yl)phenyl)isoindolin-1-one], the IC50 is more than 10000 nM.

As for `Cn1nncc1-c1cccc(-c2cc3c(cc2-c2ccc(F)cc2F)C(=O)NC3)c1` [Compound 151, 6-(2,4-difluorophenyl)-5-(3-(1-methyl-1H-1,2,3-triazol-5-yl)phenyl)isoindolin-1-one], the IC50 turned out to be 857 nM.

`[2H]C([2H])([2H])n1nncc1-c1cccc(-c2cc3c(cc2-c2ccc(F)cc2F)C(=O)NC3)c1` [Compound 152, 6-(2,4-difluorophenyl)-5-(3-(1-(methyl-d3)-1H-1,2,3-triazol-5-yl)phenyl)isoindolin-1-one] came in with an IC50 of 693 nM.

`[2H]C([2H])(C)n1nncc1-c1cccc(-c2cc3c(cc2-c2ccc(F)cc2F)C(=O)NC3)c1` [Compound 153, 6-(2,4-difluorophenyl)-5-(3-(1-(ethyl-1,1-d2)-1H-1,2,3-triazol-5-yl)phenyl)isoindolin-1-one] showed an IC50 of 727 nM.

The compound `O=C1NCc2cc(-c3cnn(CCN4CCOCC4)c3)c(-c3ccc(F)cc3F)cc21` [Compound 154, 6-(2,4-difluorophenyl)-5-(1-(2-morpholinoethyl)-1H-pyrazol-4-yl)isoindolin-1-one] yielded a 50% inhibitory concentration (IC50) of more than 10000 nM.

In the case of `O=C1NCc2cc(-c3cnn(C4COC4)c3)c(-c3ccc(F)cc3F)cc21` [Compound 155, 6-(2,4-difluorophenyl)-5-(1-(oxetan-3-yl)-1H-pyrazol-4-yl)isoindolin-1-one], the IC50 was more than 10000 nM.

On to `COc1cc(F)ccc1-c1cc2c(cc1-c1cccc(C#N)c1)CNC2=O` [Compound 156, 3-(6-(4-fluoro-2-methoxyphenyl)-1-oxoisoindolin-5-yl)benzonitrile], for which the midpoint of inhibition, the IC50, lay at 660 nM.

As for `COc1ccc(-c2cc3c(cc2-c2cccc(C#N)c2)CNC3=O)c(F)c1` [Compound 157, 3-(6-(2-fluoro-4-methoxyphenyl)-1-oxoisoindolin-5-yl)benzonitrile], the IC50 is 736 nM.

In turn, `N#Cc1cccc(-c2cc3c(cc2-c2ccc(F)c(F)c2)C(=O)NC3)c1` [Compound 158, 3-(6-(3,4-difluorophenyl)-1-oxoisoindolin-5-yl)benzonitrile] displayed an IC50 of 3730 nM.

In turn, `N#Cc1cccc(-c2cc3c(cc2-c2ccccc2F)C(=O)NC3)c1` [Compound 159, 3-(6-(2-fluorophenyl)-1-oxoisoindolin-5-yl)benzonitrile] returned an IC50 of 1720 nM.

In turn, `N#Cc1cccc(-c2cc3c(cc2-c2c(F)cc(F)cc2F)C(=O)NC3)c1` [Compound 160, 3-(1-oxo-6-(2,4,6-trifluorophenyl)isoindolin-5-yl)benzonitrile] yielded an IC50 of 218 nM.

Regarding `Cc1ccc(-c2cc3c(cc2-c2cccc(C#N)c2)CNC3=O)c(C)c1` [Compound 161, 3-(6-(2,4-dimethylphenyl)-1-oxoisoindolin-5-yl)benzonitrile], inhibition was half-maximal at 4590 nM (IC50).

Compound `N#Cc1cccc(-c2cc3c(cc2-c2ccc(OC(F)F)cc2F)C(=O)NC3)c1` [Compound 162, 3-(6-(4-(difluoromethoxy)-2-fluorophenyl)-1-oxoisoindolin-5-yl)benzonitrile] yielded an IC50 of 891 nM.

With `Cn1cc(S(=O)(=O)Nc2ccccc2-c2cc3c(cc2-c2ccc(F)cc2F)C(=O)NC3)nn1` [Compound 163, N-(2-(6-(2,4-difluorophenyl)-1-oxoisoindolin-5-yl)phenyl)-1-methyl-1H-1,2,3-triazole-4-sulfonamide], the IC50 worked out at 1110 nM.

In the case of `Cc1ncc(S(=O)(=O)Nc2ccccc2-c2cc3c(cc2-c2ccc(F)cc2F)C(=O)NC3)s1` [Compound 164, N-(2-(6-(2,4-difluorophenyl)-1-oxoisoindolin-5-yl)phenyl)-2-methylthiazole-5-sulfonamide], half-maximal inhibition (IC50) was put at 955 nM.

The compound `Cn1cc(S(=O)(=O)Nc2ccccc2-c2cc3c(cc2-c2ccc(F)cc2F)C(=O)NC3)cn1` [Compound 165, N-(2-(6-(2,4-difluorophenyl)-1-oxoisoindolin-5-yl)phenyl)-1-methyl-1H-pyrazole-4-sulfonamide] had an IC50 of 637 nM.

Take `COc1cc(C#N)ccc1-c1cc2c(cc1-c1cccc(C#N)c1)CNC2=O` [Compound 166, 4-(6-(3-cyanophenyl)-3-oxoisoindolin-5-yl)-3-methoxybenzonitrile]: 2450 nM corresponded to half-maximal inhibition (IC50).

`N#Cc1cccc(-c2cc3c(cc2-c2ccc(C#N)c(F)c2)C(=O)NC3)c1` [Compound 167, 4-(6-(3-cyanophenyl)-3-oxoisoindolin-5-yl)-2-fluorobenzonitrile] came in with an IC50 of more than 10000 nM.

`N#Cc1cccc(-c2cc3c(cc2-c2ccc(O)cc2F)C(=O)NC3)c1` [Compound 168, 3-(6-(2-fluoro-4-hydroxyphenyl)-1-oxoisoindolin-5-yl)benzonitrile] came in with an IC50 of more than 10000 nM.

The compound `N#Cc1cccc(-c2cc3c(cc2-c2ccc(F)cc2Cl)C(=O)NC3)c1` [Compound 169, 3-(6-(2-chloro-4-fluorophenyl)-1-oxoisoindolin-5-yl)benzonitrile] displayed a 50% inhibitory concentration (IC50) of 2250 nM.

Compound `COc1ccc(F)c(-c2cc3c(cc2-c2cccc(C#N)c2)CNC3=O)c1` [Compound 170, 3-(6-(2-fluoro-5-methoxyphenyl)-1-oxoisoindolin-5-yl)benzonitrile] had an IC50 of more than 10000 nM.
